According to patent publication US6730672B2, “Aminoheterocyclic derivatives as antithrombotic or anticoagulant agents” (Zeneca Limited, priority 1994, dated 2004):
pIC50: −log10 of the molar value.

How the values were obtained:
human Factor Xa = human Factor Xa (Homo sapiens, UniProt P00742); experiment: Measurement of Factor Xa Inhibition (chromogenic substrate S-2765); type: biochemical; details: test a), pH7.5, 37° C., read-out: IC50 against Factor Xa
Procedure: a) Measurement of Factor Xa Inhibition
An in vitro assay system was carried out based on the method of Kettner et al., J. Biol. Chem., 1990, 265, 18289-18297, whereby various concentrations of a test compound were dissolved in a pH7.5 buffer containing 0.5% of polyethylene glycol and incubated at 37° C. with human Factor Xa (0.001 Units/ml, 0.3 ml) for 15 minutes. The chromogenic substrate S-2765 (KabiVitum AB, 20 μM) was added and the mixture was incubated at 37° C. for 20 minutes whilst the absorbance at 405 nm was measured. The maximum reaction velocity (Vmax) was determined and compared with that of a control sample containing no test compound. Inhibitor potency was expressed as an IC50 value.

human thrombin = human thrombin (Homo sapiens, UniProt P00734); experiment: Measurement of Thrombin Inhibition (chromogenic substrate S-2238); type: biochemical; details: test b), read-out: IC50 against thrombin
From the text: b) Measurement of Thrombin Inhibition
The procedure of method a) was repeated except that human thrombin (0.005 Units/ml) and the chromogenic substrate S-2238 (KabiVitum AB) were employed.

human blood plasma [1] = experiment: Measurement of Anticoagulant Activity in vitro, prothrombin time (PT) test; type: biochemical; details: test c)
Procedure: (§1) c) Measurement of Anticoagulant Activity
(§2) An in vitro assay whereby human venous blood was collected and added directly to a sodium citrate solution (3.2 g/100 ml, 9 parts blood to 1 part citrate solution). Blood plasma was prepared by contrifugation (1000 g, 15 minutes) and stored at 2-4° C. Conventional activated partial thromboplastin time (APTT) and prothrombin time (PT) tests were carried out in the presence of various concentrations of a test compound and the concentration of test compound required to double the clotting time, hereinafter referred to as CT2, was determined. In the APTT test, the test compound, blood plasma and APTT reagent were incubated at 37° C. for 3 minutes. Calcium chloride (0.02M) was added and fibrin formation and the time required for a clot to form were determined. In the PT test, an analogous procedure was followed except that tissue thromboplastin was used in place of APTT reagent.

human blood plasma [2] = experiment: Measurement of Anticoagulant Activity in vitro, activated partial thromboplastin time (APTT) test; type: biochemical; details: test c)
Procedure: as §1, §2

[3] = test system: Alderley Park Wistar rats; experiment: Ex vivo Assay of Anticoagulant Activity (APTT and PT coagulation assays after dosing); type: in vivo; details: test d), rat
Procedure: d) An ex vivo Assay of Anticoagulant Activity
The test compound was administered intravenously or orally to a group of Alderley Park Wistar rats. At various times thereafter animals were anaesthetised, blood was collected and APTT and PT coagulation assays analogous to those described hereinbefore were conducted.

[4] = test system: Alderley Park Wistar rats; experiment: In vivo Measurement of Antithrombotic Activity (thromboplastin/stasis-induced vena cava thrombus); details: test e), rat, 5 mg/kg dose
Procedure: e) An in vivo Measurement of Antithrombotic Activity
Thrombus formation was induced using an analogous method to that described by Vogel et al., Thromb. Research, 1989, 54, 399-410. A group of Alderley Park Wistar rats was anaesthetised and surgery was performed to expose the vena cava. […] Test compound was administered intravenously or orally. At an appropriate time thereafter tissue thromboplastin (1 ml/kg) was administered into the jugular vein and, after 10 seconds, the two sutures were tightened to induce stasis within the ligated portion of vena cava. After 10 minutes the ligated tissue was excised and the thrombus therein was isolated, blotted and weighed.

Sequence of human Factor Xa (P00742 235-488 limits assumed): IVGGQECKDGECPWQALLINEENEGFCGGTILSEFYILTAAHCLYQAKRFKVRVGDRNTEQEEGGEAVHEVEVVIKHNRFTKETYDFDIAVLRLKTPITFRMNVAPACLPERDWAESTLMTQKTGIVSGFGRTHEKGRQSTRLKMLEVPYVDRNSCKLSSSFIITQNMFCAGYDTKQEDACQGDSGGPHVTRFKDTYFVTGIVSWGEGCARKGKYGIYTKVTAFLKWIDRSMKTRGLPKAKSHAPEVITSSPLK
Sequence of human Factor Xa (P00742 41-179 partner limits assumed): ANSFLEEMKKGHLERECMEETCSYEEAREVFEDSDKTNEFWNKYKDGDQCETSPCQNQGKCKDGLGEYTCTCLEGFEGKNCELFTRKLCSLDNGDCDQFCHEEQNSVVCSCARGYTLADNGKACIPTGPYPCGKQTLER

For `O=C(CNS(=O)(=O)c1ccc2ccccc2c1)NC(CNC(=O)C1CCN(c2ccncc2)CC1)C(=O)N1CCCCC1` (centres unmarked) [Example 1, 2-(2-naphthalenesulphonamido)-N-{1-piperidinocarbonyl-2-[1-(4-pyridyl)-piperidin-4-ylcarbonylamino]ethyl}acetamide], the pIC50 (human Factor Xa) was 6.52, the pIC50 (human thrombin) was less than 4.00 and the “CT2 (PT), concentration required to double the clotting time” value (from here on “CT2 (PT), concentration required”) (human blood plasma [1]) was 14 µM. For the same molecule, the “CT2 (APTT), concentration required to double the clotting time” value (shortened to “CT2 (APTT), concentration required”) (human blood plasma [2]) was 62 µM, the “clotting time following intravenous administration” value ([3]; 10 mg/kg dose) was “increased clotting time” and the “thrombus weight following intravenous administration” value [4] was “reduced thrombus weight”.
With `O=C(C1CCN(c2ccncc2)CC1)N1CCN(S(=O)(=O)/C=C/c2ccc(Cl)cc2)CC1` [Example 39, Compound No. 2, 1-[(E)-4-chlorostyrylsulphonyl]-4-[-1-(4-pyridyl)piperidin-4-ylcarbonyl]piperazine] the pIC50 (human Factor Xa) was 7.92, the pIC50 (human thrombin) was less than 4.00 and the “CT2 (PT), concentration required” value (human blood plasma [1]) was 1 µM. For the same molecule, the “CT2 (APTT), concentration required” value (human blood plasma [2]) was 1.8 µM, the “clotting time following intravenous administration” value ([3]; 5 mg/kg dose) was “increased clotting time” and the “thrombus weight following intravenous administration” value [4] was “reduced thrombus weight”.
For `O=C(C1CCN(c2ccncc2)CC1)N1CCN(S(=O)(=O)c2ccc3cc(Cl)ccc3c2)CC1` [Example 40, Compound No. 5, 1-(6-chloronaphth-2-ylsulphonyl)-4-[1-(4-pyridyl)piperidin-4-ylcarbonyl]piperazine], the pIC50 (human Factor Xa) was 8.52, the pIC50 (human thrombin) was 4.47 and the “CT2 (PT), concentration required” value (human blood plasma [1]) was 0.5 µM. The “CT2 (APTT), concentration required” value (human blood plasma [2]) was 1.2 µM and the “clotting time following intravenous administration” value ([3]; 5 mg/kg dose) was “increased clotting time”.
For `O=C(C1CCN(c2ccncc2)CC1)N1CCN(S(=O)(=O)c2ccc(-c3ccc(Cl)cc3)cc2)CC1` [Example 41, Compound No. 3, 1-(4′-chloro-4-biphenylylsulphonyl)-4-[1-(4-pyridyl)-piperidin-4-ylcarbonyl]piperazine], the pIC50 (human Factor Xa) was 8.00 and the pIC50 (human thrombin) was 4.08.
With `CCOC(=O)C1CN(S(=O)(=O)c2ccc3cc(Cl)ccc3c2)CCN1C(=O)C1CCN(c2ccncc2)CC1` (centres unmarked) [Example 62, 4-(6-chloronaphth-2-ylsulphonyl)-2-ethoxycarbonyl-1-[1-(4-pyridyl)-piperidin-4-ylcarbonyl]piperazine] the pIC50 (human Factor Xa) was 8.70, the pIC50 (human thrombin) was less than 5.00 and the “CT2 (PT), concentration required” value (human blood plasma [1]) was 0.7 µM. For the same molecule, the “clotting time following intravenous administration” value ([3]; 5 mg/kg dose) was “increased clotting time”.
With `O=C(O)C1CN(S(=O)(=O)c2ccc3cc(Cl)ccc3c2)CCN1C(=O)C1CCN(c2ccncc2)CC1` (centres unmarked) [Example 63, 2-carboxy-4-(6-chloronaphth-2-ylsulphonyl)-1-[1-(4-pyridyl)piperidin-4-ylcarbonyl]-piperazine] the pIC50 (human Factor Xa) was 8.10, the pIC50 (human thrombin) was less than 5.00 and the “CT2 (PT), concentration required” value (human blood plasma [1]) was 4.6 µM. For the same molecule, the “clotting time following intravenous administration” value ([3]; 5 mg/kg dose) was “increased clotting time”, the “thrombus weight following intravenous administration” value [4] was “reduced thrombus weight” and the melting point was 215 to 220 °C (dec.).
